Here are results for one compound from US20120083464A1, “NEUROPROTECTIVE PROPERTIES OF 5'-METHYLTHIOADENOSINE” (priority 2009, published 2012).

The test system of series [1] is mixed cultures of neurons and astrocytes from the cerebral cortex. Kind of series: Cell toxicity and viability assays (calcein-AM, LDH) in neuron-astrocyte co-cultures. Conditions: MTA 10 μM-1 mM for 24 hours. The format is cell-based. The text has this: Primary neuron cultures were obtained from the cortical lobes of E18 Sprague-Dawley rat embryos according to previously described procedures (Cheung et al., 1998, Neuropharmacology 37:1419-1429). The cells were resuspended in B27 Neurobasal medium plus 10% FBS and then seeded in 24-well plates at 1-2×10^5 cells per well onto a monolayer of astrocytes which were previously prepared as described earlier (Vallejo-Illarramendi et al., 2005, Glia 50:276-279). One day later, the medium was replaced by B27-supplemented Neurobasal medium and 10% fetal bovine serum, and maintained at 37° C. and 5% CO2. Cultures were used 8-9 days after plating. Cultured neurons and astrocytes were identified using antibodies to microtubule associated protein-2 and glial fibrillary acidic protein, respectively.
Cell death and cell viability in neuron-astrocyte co-cultures was assayed after 24 h of exposure to MTA (10 μM to 1 mM) using lactate dehydrogenase and calcein-AM assays respectively followed by fluorimetry measurements (Synergy-HT). The results are expressed as percentage of viable cells or LDH release versus controls, as the mean±SEM of at least four independent experiments performed in triplicate. […]

The subject of series [2] is oligodendrocytes derived from the optic nerve. Kind of series: Oligodendrocyte excitotoxicity with AMPA. Conditions: MTA 100-300 μM. In kind it is cell-based, Sprague Dawley rats. On the procedure: Primary cultures of oligodendrocytes derived from optic nerves of 12-d-old Sprague Dawley rats were obtained as described previously (Barres et al., 1992). Cells were seeded into 24-well plates bearing 12-mm-diameter coverslips coated with poly-D-lysine (10 μg/ml) at a density of 5×10^3 cells per well. Cells were maintained at 37° C. and 5% CO2 in a chemically defined medium (Barres et al., 1992, Cell 70:31-46). After 2-4 d in vitro, cultures were composed of at least 98% O4/galactocerebroside-positive (O4/Ga1C_) cells; the majority of the remaining cells were stained with antibodies to glial fibrillary acidic protein (GFAP). No A2B5+ or microglial cells were detected in these cultures (Alberdi et al., 2002, Neurobiol Dis 9:234-243).
Cell toxicity and viability assays were performed as described previously (Sánchez-Gómez and Matute, 1999, Neurobiol Dis 6:475-485). For evaluating the MTA toxicity, cells at 2-4 d in culture were exposed for 24 hours to that drug and cell viability assessed using calcein-AM (Invitrogen). […] Twenty-four hours after drug application, cell viability was assessed using calcein-AM (Invitrogen). The total number of surviving cells on each coverslip emitting calcein fluorescence was counted, and results were expressed as percentage of cell death versus control. Results were expressed as the mean±SEM of at least three independent experiments performed in duplicate. […]

The test system of series [3] is dopaminergic neurons (TH+ cells) in the substantia nigra. Kind of series: MPTP mice model of Parkinson disease, TH immunohistochemistry. In kind it is in vivo, C57B1 mice. The method, then: Male C57B1 mice, with a body ranging in weight from 23 to 31 g were used in this study. MPTP (Sigma) dissolved in 0.9% NaCl was injected intraperitonealy at a dose of 30 mg/kg for 5 days. MTA was dissolved in purified water with 2% of DMSO at a final concentration of 6 mg/ml and was injected intraperitonealy at a dose of […] or 192 μmol/Kg. The first day of the experiment MTA was injected 24 hours before the MPTP injection and during the following four days administration of MTA was 1 hour before the administration of MPTP. Mice were divided in four groups: (1) MPTP (n=6); (2) MPTP plus 96 μmol/Kg MTA (n=6); (3) MPTP plus 192 μmol/Kg MTA (n=9) and (4) Control group (n=2).
At the end of the experiment, animals were anesthetized with an overdose of 10% chloral hydrate in distilled water and then transcardially perfused with saline Ringer's solution followed by 100 ml of a cold fixative solution containing 4% paraformaldehyde and 0.4% glutaraldehyde in 0.125 M PB, pH 7.4. After perfusion, the skull was opened and the brain removed was post-fixed overnight at 4° C. in the same fixative solution and next stored in a cryoprotective solution containing 20% glycerine and 2% dimethylsulphoxide in 0.125 M PB, pH 7.4. Frozen coronal microtome sections (50 μm-thick) were obtained and collected in 0.125 M PB, pH 7.4, in 6 series of adjacent sections. Sections were stored at −80° C. until further processing.
With a random start, every third sections through the entire SN were sampled. The sections were processed free-floating. Endogenous peroxidase activity was removed by incubating the sections in methanol with 1.25% H2O2 for 40 min. […] Histological quantification was done using the CAST system from Olympus using the BX50 microscope and following the methods described by Oorschot (J Comp Neurol 366:580-599, 1996). […] Neurons were counted using the optic dissector every 3 sections at 150 μm distance and at ×400. […]

Entries after “also recorded” stand apart in the source; their conditions may differ.

As for `CSC[C@H]1O[C@@H](n2cnc3c(N)ncnc32)[C@H](O)[C@@H]1O` [MTA, 5′-methylthioadenosine], the “astrocyte resistance and viability to MTA” value in series [1] is “resistant and viable”. For the same compound, in series [1] (neurons in co-culture), the “toxicity (cell viability by calcein fluorescence; cell death by LDH release)” value is on record as “very low; also recorded: not toxic”. In addition, the “protection of oligodendrocytes from excitotoxic insult” value in series [2] (AMPA 10 μM) was “robust protective activity; also recorded: protects”; in series [2] (AMPA 100 μM (necrotic death)), “no protection; also recorded: does not protect”. Also, in series [3] (MPTP 30 mg/kg for 5 days plus MTA 96 μM/day (so in the source)), the “reduction in the number of TH (dopaminergic) neurons compared to controls” value was found to be 10%. Also, the “higher number of dopaminergic neurons than MPTP treated animals” value in series [3] (MPTP plus MTA 96 μM/day (so in the source)) is listed as 30%. For the same compound, the “number of TH neurons versus MPTP animals” value in series [3] (MPTP plus MTA (96 μM as printed)) is listed as “significantly higher number of TH neurons”.
